These results are taken from patent publication US6632829B2, “Sulfonamides and derivatives thereof that modulate the activity of endothelin” (Texas Biotechnology Corp., priority 1996, dated 2003).

In one test the target is T1, human ETB receptor (Homo sapiens, UniProt P24530).
T1 construct: expressed in transfected cells; host or cells: COS7 cells
T1 sequence (P24530 27-442): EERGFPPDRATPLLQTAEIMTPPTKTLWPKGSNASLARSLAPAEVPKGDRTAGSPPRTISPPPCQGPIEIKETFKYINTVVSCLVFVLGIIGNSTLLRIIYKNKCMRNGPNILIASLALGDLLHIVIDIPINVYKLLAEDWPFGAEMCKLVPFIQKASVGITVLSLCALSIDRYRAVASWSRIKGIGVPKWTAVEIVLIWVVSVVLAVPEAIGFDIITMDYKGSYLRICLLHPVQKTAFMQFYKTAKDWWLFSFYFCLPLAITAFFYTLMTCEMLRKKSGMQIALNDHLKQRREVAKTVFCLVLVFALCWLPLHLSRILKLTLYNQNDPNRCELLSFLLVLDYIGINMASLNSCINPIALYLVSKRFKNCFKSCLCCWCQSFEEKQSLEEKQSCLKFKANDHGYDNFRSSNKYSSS
In words: Endothelin binding inhibition, Binding Test #2: competition with 125I-ET-1 for ETB receptors on transfected COS7 cell membranes. Particulars: incubation at 24° C. (values marked †). In outline:
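Membranes from COS7 cells transfected with human ETB receptor, prepared in HEPES pH 7.4 with aprotinin, MnCl2/DNase treatment at 37° C for 30 min. Test compounds compete with 125I-labeled ET-1 for receptor binding; membrane used at 1 μg/50 μL binding buffer.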

In test [1] the test system is Pulmonary Hypertension model. In words: Pulmonary Hypertension model. Further details: key: ++: effective at 5 mg/kg; −: no effect at 5 mg/kg; +: effective at 15 mg/kg. It counts as in vivo, rat. The protocol:
As used herein, efficacy refers to the maximal effect that can be produced by a compound. Efficacy can be determined by methods known to those of skill in the art. For example, it can be determined by the properties of the compound and its receptor-effector system and is reflected in the plateau of the concentration-effect curve. In vivo efficacy refers to efficacy which is determined in an animal model. For example, in vivo efficacy of the compounds described herein can be determined by hypoxia-induced pulmonary hypertension in rat. See, e.g., DiCarlo et al. (1995) Am. J. Physiol. 269:[…]-[…]. Table 2 lists oral half-life, bioavailability, and in vivo activity of selected exemplary compounds. The in vivo activity was measured in a pulmonary hypertension model and is a measure of the activity of the compounds at selected dosages.

Compound `Cc1cc(C)c(NC(=O)c2sccc2S(=O)(=O)Nc2onc(C)c2Cl)c(C)c1O` [N-(4-chloro-3-methyl-5-isoxazolyl)-2-(3-hydroxy-2,4,6-trimethylphenylaminocarbonyl)thiophene-3-sulfonamide] gave an IC50 on human ETB receptor of 18.7 µM. Further, the “in vivo Efficacy” value in test [1] is “++”.

What is called IC50 is the midpoint of a concentration-inhibition curve.
